Assay: storage stability of purified tanaproget Form I (polymorph conversion)
Type: physicochemical
Conditions: storage of purified tanaproget Form I alone or in combination with other agents/excipients

Cn1c(C#N)ccc1-c1ccc2c(c1)C(C)(C)OC(=S)N2 [purified tanaproget Form I, 5-(4,4-dimethyl-2-thioxo-1,4-dihydro-2H-3,1-benzoxazin-6-yl)-1-methyl-1H-pyrrole-2-carbonitrile]
stability / conversion to another polymorph during storage: stable and less likely to convert to another polymorph during storage

Reference: patent US7786297B2, “Purified form of tanaproget” (Wyeth LLC, priority 2005, dated 2010)
